Patent US20230072683A1, “PYRIDO-PYRIMIDIN DERIVATIVES AND PHARMACEUTICAL COMPOSITION, FOR USE IN PREVENTING OR TREATING PI3 KINASE RELATED DISEASES, COMPRISING SAME AS ACTIVE INGREDIENT” (BORYUNG PHARMACEUTICAL CO., LTD, priority 2019, published 2023)
Where two headings read alike, the source gives them in different places.

Assays:
[1] = molecular target: PI3K-δ (PI3K(p1108/p857) (h)) (Homo sapiens, UniProt O00329); experiment: Evaluation of inhibitory activity against PI3K-δ (HTRF kinase assay); type: biochemical; settings: for inhibition at 0.01 µM: compound concentration 0.01 μM, read-out: EXP_VALUE(% Inhibition) PI3K-δ 0.01 μM; for inhibition at 0.1 µM: read-out: EXP_VALUE(% Inhibition) PI3K-δ 0.1 μM
Summary of the method: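 HTRF read-out (665/620 nm ratio ×10000) used Eu-labelled anti-GST, GST-tagged GRP1 PH domain and streptavidin-allophycocyanin after EDTA/PIP3 stop.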

DNA-PK(h) = DNA-PK(h) (Homo sapiens, UniProt P78527); experiment: Evaluation of inhibitory activity against DNA-PK (HTRF kinase assay, GST-cMyc-p53 substrate); type: biochemical; settings: for inhibition at 0.01 µM: compound concentration 0.01 μM, read-out: EXP_VALUE(% Inhibition) DNA-PK(h) 0.01 μM; for inhibition at 0.1 µM: read-out: EXP_VALUE(% Inhibition) DNA-PK(h) 0.1 μM
Summary of the method: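 Human DNA-PK with 50 μM GST-cMyc-p53 substrate; reaction started with Mg/ATP, run 30 min at room temperature, stopped with EDTA. Phospho-Ser15 p53 detected by HTRF (Eu anti-phospho-Ser15, d2 anti-GST), signal = 10000×(Em 665/Em 620).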

Chain of PI3K-δ (PI3K(p1108/p857) (h)) (O00329 whole entry, the tested form may be a part): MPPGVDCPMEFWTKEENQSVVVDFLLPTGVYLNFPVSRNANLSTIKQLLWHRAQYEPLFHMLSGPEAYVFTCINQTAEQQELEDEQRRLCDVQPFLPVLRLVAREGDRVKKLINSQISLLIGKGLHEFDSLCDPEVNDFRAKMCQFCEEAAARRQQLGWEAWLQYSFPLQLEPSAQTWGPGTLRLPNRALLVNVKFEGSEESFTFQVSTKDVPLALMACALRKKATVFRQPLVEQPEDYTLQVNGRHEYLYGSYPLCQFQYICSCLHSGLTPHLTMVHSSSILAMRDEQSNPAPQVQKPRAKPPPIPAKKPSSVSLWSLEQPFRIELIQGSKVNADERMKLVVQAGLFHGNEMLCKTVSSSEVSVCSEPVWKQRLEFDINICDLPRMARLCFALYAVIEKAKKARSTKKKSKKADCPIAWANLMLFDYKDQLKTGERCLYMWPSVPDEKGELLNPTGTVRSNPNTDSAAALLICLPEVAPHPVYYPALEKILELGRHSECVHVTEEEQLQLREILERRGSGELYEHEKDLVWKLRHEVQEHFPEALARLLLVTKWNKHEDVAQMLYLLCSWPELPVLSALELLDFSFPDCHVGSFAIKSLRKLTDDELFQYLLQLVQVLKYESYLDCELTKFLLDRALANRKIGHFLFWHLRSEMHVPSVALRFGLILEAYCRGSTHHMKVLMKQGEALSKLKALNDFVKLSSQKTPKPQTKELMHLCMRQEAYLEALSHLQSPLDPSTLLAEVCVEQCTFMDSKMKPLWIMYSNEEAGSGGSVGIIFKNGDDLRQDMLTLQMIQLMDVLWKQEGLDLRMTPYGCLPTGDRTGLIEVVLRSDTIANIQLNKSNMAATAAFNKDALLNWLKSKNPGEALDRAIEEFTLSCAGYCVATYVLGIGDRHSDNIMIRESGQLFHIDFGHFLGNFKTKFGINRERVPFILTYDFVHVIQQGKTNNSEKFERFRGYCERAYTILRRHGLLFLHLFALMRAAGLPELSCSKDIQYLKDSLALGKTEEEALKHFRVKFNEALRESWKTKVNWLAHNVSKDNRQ
Chain of PI3K-δ (PI3K(p1108/p857) (h)) (P27986 whole entry partner, the tested form may be a part): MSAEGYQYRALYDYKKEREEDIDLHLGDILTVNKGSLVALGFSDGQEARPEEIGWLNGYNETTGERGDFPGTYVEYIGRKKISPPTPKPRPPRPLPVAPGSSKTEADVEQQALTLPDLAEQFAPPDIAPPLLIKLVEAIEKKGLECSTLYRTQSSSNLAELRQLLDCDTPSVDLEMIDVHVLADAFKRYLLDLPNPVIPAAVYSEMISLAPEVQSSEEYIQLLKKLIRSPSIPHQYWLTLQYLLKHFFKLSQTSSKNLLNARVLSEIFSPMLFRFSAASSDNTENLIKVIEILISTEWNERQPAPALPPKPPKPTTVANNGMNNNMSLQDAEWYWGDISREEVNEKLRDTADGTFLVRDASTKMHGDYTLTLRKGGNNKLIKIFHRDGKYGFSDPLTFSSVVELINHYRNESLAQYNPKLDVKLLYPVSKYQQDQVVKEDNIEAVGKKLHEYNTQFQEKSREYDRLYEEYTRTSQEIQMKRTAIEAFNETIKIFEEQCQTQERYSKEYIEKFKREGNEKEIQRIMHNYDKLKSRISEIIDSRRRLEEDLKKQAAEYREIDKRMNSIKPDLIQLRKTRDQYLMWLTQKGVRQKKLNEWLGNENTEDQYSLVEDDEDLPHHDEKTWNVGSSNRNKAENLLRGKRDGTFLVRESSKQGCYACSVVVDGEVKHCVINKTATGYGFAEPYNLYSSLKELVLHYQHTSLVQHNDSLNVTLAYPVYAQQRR

inhibition at 0.01 µM [1] | inhibition at 0.01 µM (DNA-PK(h)) | inhibition at 0.1 µM ([1]; compound concentration 0.1 μM) | inhibition at 0.1 µM (DNA-PK(h); compound concentration 0.1 μM) | inhibition at 0.1 µM ([1]; compound at 0.1 μM) | inhibition at 0.1 µM (DNA-PK(h); compound at 0.1 μM) | Compound
63% | 44% | – | – | – | – | C[C@H](Nc1ncnc2[nH]ccc(=O)c12)c1c(Cl)c2cccc(NS(C)(=O)=O)c2c(=O)n1-c1ccccc1 [Example 300, (S)—N-(4-chloro-1-oxo-3-(1-((5-oxo-5,8-dihydropyrido[2,3-d]pyrimidin-4-yl)amino)ethyl)-2-phenyl-1,2-dihydroisoquinolin-8-yl) methanesulfonamide]
5% | -1% | – | – | – | – | C[C@H](Nc1ncnc2[nH]ccc(=O)c12)c1c(Cl)c2cccc(Nc3ccccn3)c2c(=O)n1-c1ccccc1 [Example 348, (S)-4-((1-(4-chloro-1-oxo-2-phenyl-8-(pyridin-2-ylamino)-1,2-dihydroisoquinolin-3-yl)ethyl)amino)pyrido[2,3-d]pyrimidin-5(8H)-one]
101% | 53% | 109% | 99% | – | – | C[C@H](Nc1ncnc2[nH]ccc(=O)c12)c1c(Cl)c2cccc(-c3cccnc3)c2c(=O)n1-c1ccccc1 [Example 4, (S)-4-((1-(4-chloro-1-oxo-2-phenyl-8-(pyridin-3-yl)-1,2-dihydroisoquinolin-3-yl)ethyl)amino)pyrido[2,3-d]pyrimidin-5(8H)-one]
84% | 78% | 95% | 100% | – | – | C[C@H](Nc1ncnc2[nH]ccc(=O)c12)c1c(Cl)c2cccc(-c3ccc(N)cc3)c2c(=O)n1-c1ccccc1 [Example 94, (S)-4-((1-(8-(4-aminophenyl)-4-chloro-1-oxo-2-phenyl-1,2-dihydroisoquinolin-3-yl)ethyl)amino)pyrido[2,3-d]pyrimidin-5(8H)-one]
46% | 17% | 79% | 62% | – | – | C[C@H](Nc1ncnc2[nH]ccc(=O)c12)c1c(Cl)c2cccc(N3CCN(c4ccccn4)CC3)c2c(=O)n1-c1ccccc1 [Example 333, (S)-4-((1-(4-chloro-1-oxo-2-phenyl-8-(4-(pyridin-2-yl)piperazin-1-yl)-1,2-dihydroisoquinolin-3-yl)ethyl)amino)pyrido[2,3-d]pyrimidin-5(8H)-one]
31% | 28% | 84% | 65% | – | – | COc1cccc2c(Cl)c([C@H](C)Nc3ncnc4[nH]ccc(=O)c34)n(-c3ccccc3)c(=O)c12 [Example 365, (S)-4-((1-(4-chloro-8-methoxy-1-oxo-2-phenyl-1,2-dihydroisoquinolin-3-yl)ethyl)amino)pyrido[2,3-d]pyrimidin-5(8H)-one]
– | – | – | – | 92% | 16% | C[C@H](Nc1ncnc2[nH]ccc(=O)c12)c1c(Cl)c2cccc(C(=O)Nc3ccccc3)c2c(=O)n1-c1ccccc1 [Example 440, (S)-4-chloro-1-oxo-3-(1-((5-oxo-5,8-dihydropyrido[2,3-d]pyrimidin-4-yl)amino)ethyl)-N, 2-diphenyl-1,2-dihydroisoquinoline-8-carboxamide]
10.2% | -1.2% | 29.9% | 23.6% | – | – | C[C@H](Nc1ncnc2[nH]ccc(=O)c12)c1c(Cl)c2cccc(/C=C/c3ccccc3)c2c(=O)n1-c1ccccc1 [Example 70, (S,E)-4-((1-(4-chloro-1-oxo-2-phenyl-8-styryl-1,2-dihydroisoquinolin-3-yl)ethyl)amino)pyrido[2,3-d]pyrimidin-5(8H)-one]

Continued, compound first:

Compound | inhibition at 0.01 µM [1] | inhibition at 0.01 µM (DNA-PK(h)) | inhibition at 0.1 µM ([1]; compound concentration 0.1 μM) | inhibition at 0.1 µM (DNA-PK(h); compound concentration 0.1 μM) | inhibition at 0.1 µM ([1]; compound at 0.1 μM) | inhibition at 0.1 µM (DNA-PK(h); compound at 0.1 μM)
C[C@H](Nc1ncnc2[nH]ccc(=O)c12)c1c(Cl)c2cccc(-c3ccc4ncnn4c3)c2c(=O)n1-c1ccccc1 [Example 42, (S)-4-((1-(8-([1,2,4]triazolo[1,5-a]pyridin-6-yl)-4-chloro-1-oxo-2-phenyl-1,2-dihydroisoquinolin-3-yl)ethyl)amino)pyrido[2,3-d]pyrimidin-5(8H)-one] | 89% | 76% | – | – | – | –
COc1ncc(-c2cccc3c(Cl)c([C@H](C)Nc4ncnc5[nH]ccc(=O)c45)n(-c4ccccc4)c(=O)c23)cc1NS(=O)(=O)c1ccc(F)cc1F [Example 232, (S)—N-(5-(4-chloro-1-oxo-3-(1-((5-oxo-5,8-dihydropyrido[2,3-d]pyrimidin-4-yl)amino)ethyl)-2-phenyl-1,2-dihydroisoquinolin-8-yl)-2-methoxypyridin-3-yl)-2,4-difluorobenzenesulfonamide] | 23% | 15% | – | – | – | –
Cc1ncc(-c2cccc3c(Cl)c([C@H](C)Nc4ncnc5[nH]ccc(=O)c45)n(-c4ccccc4)c(=O)c23)cn1 [Example 136, (S)-4-((1-(4-chloro-8-(2-methylpyrimidin-5-yl)-1-oxo-2-phenyl-1,2-dihydroisoquinolin-3-yl)ethyl)amino)pyrido[2,3-d]pyrimidin-5(8H)-one] | 83% | 75% | 93% | 97% | – | –
C[C@H](Nc1ncnc2[nH]ccc(=O)c12)c1c(Cl)c2cccc(-c3cccc(F)c3F)c2c(=O)n1-c1ccccc1 [Example 129, (S)-4-((1-(4-chloro-8-(2,3-difluorophenyl)-1-oxo-2-phenyl-1,2-dihydroisoquinolin-3-yl)ethyl)amino)pyrido[2,3-d]pyrimidin-5(8H)-one] | 75% | 56% | 67% | 91% | – | –
C[C@H](Nc1ncnc2[nH]ccc(=O)c12)c1c(Cl)c2cccc(-c3cnc(C4CCC4)nc3)c2c(=O)n1-c1ccccc1 [Example 54, (S)-4-((1-(4-chloro-8-(2-cyclobutylpyrimidin-5-yl)-1-oxo-2-phenyl-1,2-dihydroisoquinolin-3-yl)ethyl)amino)pyrido[2,3-d]pyrimidin-5(8H)-one] | 55% | 42% | – | – | – | –
C[C@H](Nc1ncnc2[nH]ccc(=O)c12)c1c(Cl)c2cccc(C#Cc3ccnn3C)c2c(=O)n1-c1ccccc1 [Example 311, (S)-4-((1-(4-chloro-8-((1-methyl-1H-pyrazol-5-yl)ethynyl)-1-oxo-2-phenyl-1,2-dihydroisoquinolin-3-yl)ethyl)amino)pyrido[2,3-d]pyrimidin-5(8H)-one] | 18.2% | 47.1% | 39.5% | 82.2% | – | –
C[C@H](Nc1ncnc2[nH]ccc(=O)c12)c1c(Cl)c2cccc(C#Cc3cncnc3)c2c(=O)n1-c1ccccc1 [Example 316, (S)-4-((1-(4-chloro-1-oxo-2-phenyl-8-(pyrimidin-5-ylethynyl)-1,2-dihydroisoquinolin-3-yl)ethyl)amino)pyrido[2,3-d]pyrimidin-5(8H)-one] | 43% | 88% | 91% | 99% | – | –
Cc1c[nH]c2ccc(-c3cccc4cc([C@H](C)Nc5ncnc6[nH]ccc(=O)c56)n(-c5ccccc5)c(=O)c34)cc12 [Example 263, (S)-4-((1-(8-(3-methyl-1H-indol-5-yl)-1-oxo-2-phenyl-1,2-dihydroisoquinolin-3-yl)ethyl)amino)pyrido[2,3-d]pyrimidin-5(8H)-one] | 77% | 6% | 89% | 52% | – | –
C[C@H](Nc1ncnc2[nH]ccc(=O)c12)c1c(Cl)c2cccc(-c3ccc(N4CCCCC4)cc3)c2c(=O)n1-c1ccccc1 [Example 88, (S)-4-((1-(4-chloro-1-oxo-2-phenyl-8-(4-(piperidin-1-yl)phenyl)-1,2-dihydroisoquinolin-3-yl)ethyl)amino)pyrido[2,3-d]pyrimidin-5(8H)-one] | 42% | 33% | 88% | 78% | – | –
C[C@H](Nc1ncnc2[nH]ccc(=O)c12)c1c(Cl)c2cccc(-c3cncnc3)c2c(=O)n1-c1ccccc1 [Example 102, (S)-4-((1-(4-chloro-1-oxo-2-phenyl-8-(pyrimidin-5-yl)-1,2-dihydroisoquinolin-3-yl)ethyl)amino)pyrido[2,3-d]pyrimidin-5(8H)-one] | 110% | 73% | 105% | 94% | – | –
C[C@H](Nc1ncnc2[nH]ccc(=O)c12)c1c(Cl)c2cccc(-c3ccc4c(c3)OCCN4)c2c(=O)n1-c1ccccc1 [Example 120, (S)-4-((1-(4-chloro-8-(3,4-dihydro-2H-benzo[b][1,4]oxazin-7-yl)-1-oxo-2-phenyl-1,2-dihydroisoquinolin-3-yl)ethyl)amino)pyrido[2,3-d]pyrimidin-5(8H)-one] | 65% | 72% | 95% | 98% | – | –
C[C@H](Nc1ncnc2[nH]ccc(=O)c12)c1c(Cl)c2cccc(-c3cc4[nH]ncc4cn3)c2c(=O)n1-c1ccccc1 [Example 27, (S)-4-((1-(4-chloro-1-oxo-2-phenyl-8-(1H-pyrazolo[4,3-c]pyridin-6-yl)-1,2-dihydroisoquinolin-3-yl)ethyl)amino)pyrido[2,3-d]pyrimidin-5(8H)-one] | 76% | 34% | – | – | – | –
C[C@H](Nc1ncnc2[nH]ccc(=O)c12)c1c(Cl)c2cccc(-c3cnc(N4CCOCC4)nc3)c2c(=O)n1-c1ccccc1 [Example 174, (S)-4-((1-(4-chloro-8-(2-morpholinopyrimidin-5-yl)-1-oxo-2-phenyl-1,2-dihydroisoquinolin-3-yl)ethyl)amino)pyrido[2,3-d]pyrimidin-5(8H)-one] | 65% | 67% | – | – | – | –
